# Measurements taken from paper PMC10218704, “A Novel Blood–Brain Barrier-Penetrating and Vascular-Targeting Chimeric Peptide Inhibits Glioma Angiogenesis” (International Journal of Molecular Sciences, 2023).
# Columns and labels:
# HUVECs = assay: Annexin V-FITC/PI staining, flow cytometry (apoptosis); assay type: cell-based, human; details: 320 μmol/L, 24 h
# Protocol: HUVECs were seeded into 6-well culture plates (3 × 10^5 cells/well). […] After discarding the supernatant and washing with cold PBS, the cells were fixed in 4% paraformaldehyde and stained with Hoechst 33,258 for 10 min. Then, the cells were washed with cold PBS and observed using an inverted fluorescence microscope. HUVECs were treated with different peptides (the methods were the same as the Hoechst staining). After 24 h, cells were collected by trypsin digestion and washed with PBS. Annexin V-FITC/PI staining was conducted according to the manufacturer’s instructions for the Apoptosis Detection Kit. Briefly, 195 μL of Annexin V-FITC/PI dilution buffer was added to resuspend the cells. Then, 5 μL of Annexin V-FITC and 10 μL of PI staining solutions were added and gently mixed with the cells. After incubation at room temperature in the dark for 10 min, the apoptotic cells were detected by flow cytometry.
# VEGFR-2 = assay type: binding, human; details: peptide 256 and 1000 nmol/L; VEGF-A165 0.5-8 nmol/L; CM5 chip; HBS-EP
# Protocol: To determine the effect of TAT-AT7 in competition with VEGF-A165 binding to VEGFR-2 or NRP-1, the SPR assay was conducted. The whole operation was conducted on a Biacore S200 instrument. The recombinant VEGFR-2 or NRP-1 proteins were firstly immobilized on a CM5 chip by an amine-coupling reaction. VEGF-A165 ligands with gradient concentrations in the absence or presence of different peptides were then flowed over the CM5 chip. The binding of VEGF-A165 ligands to the immobilized recombinant VEGFR-2 or NRP-1 proteins led to an increase of the refractive index on the surface of the chip, which could be converted into the fluctuation of electrical signals in the response (RU). As the concentration of VEGF-A165 was higher, the response value was also higher. However, with the addition of different peptides, the response value decreased to different degrees (Figure 3A and Figure 4A).
# (TAT), ATWLPPR (AT7), and […] (TAT-AT7) were synthesized from China Peptides Co., Ltd. (Shanghai, China). The Hoechst 33,258 staining kit, Annexin V-FITC/PI apoptosis detection kit, and BCA protein assay kit were obtained from Beyotime Biotechnology (Nantong, China). The total protein extraction kit was from BestBio (Shanghai, China). The CM5 sensor chip was obtained from GE Healthcare Life Sciences (Uppsala, Sweden). Purified recombinant human VEGFR-2 and NRP-1 receptor proteins were purchased from R&D Systems (Minneapolis, MN, USA). Recombinant human endothelial growth factor-A165 (VEGF-A165) was obtained from PeproTech (Rocky Hill, NJ, USA). Anti-ERK1/2, anti-p-ERK1/2, anti-p-VEGFR-2, anti-AKT, anti-p-AKT, anti-p-SRC, anti-p-FAK, anti-p38 MAPK, anti-p-p38 MAPK, anti-p-PLC-γ, and anti-GAPDH antibodies were purchased from Cell Signaling Technology (Danvers, MA, USA). Anti-VEGFR-2, anti-FAK, and anti-SRC were purchased from Proteintech Group, Inc (Wuhan, China). F-12K medium, heparin, and endothelial cell growth supplement (ECGS) were from Macgene (Beijing, China). DMEM medium and fetal bovine serum (FBS) were obtained from Gibco®, Life Technologies (Carlsbad, CA, USA). […]
# [1] = test system: zebrafish embryo intersegmental vessel; assay: Zebrafish embryo intersegmental vessel angiogenesis; assay type: in vivo; details: 25 µmol/L; 24 h; 28 °C; fluorescence microscope; vs control; n = 3
# Protocol: After a certain period, healthy, sexually mature female and male zebrafish were mated in a 1:1 ratio. After 24 h, the fertilized eggs were removed, disinfected, and washed, and then placed in embryo culture water and cultured in an incubator at 28 °C for 24 h. The fertilized eggs were washed with chain enzyme protease E solution (1 mg/mL) to remove the egg membrane on the surface and placed under a microscope to observe and select the normally developing zebrafish embryos, and then placed into a 24-well plate. […] The control group was added with the same volume of embryo culture water, and then placed in an incubator at 28 °C for 24 h. Zebrafish embryos were randomly removed from each group and observed under a fluorescence microscope. The total length of zebrafish internode vessels was calculated and counted.
# red blood cells = assay: Hemolysis assay; details: 2.5–640 μmol/L; 37 °C, 1 h; 540 nm; mouse red blood cells; n = 3
# Protocol: The fresh blood of mice was centrifuged at 2000 r/min for 10 min, and the upper layer of serum was discarded, then mixed with normal saline and centrifuged at 2000 r/min for 10 min, repeated three times, and the supernatant was removed to obtain the lower layer of red blood cells. Then, 1 mL of red blood cells was diluted to 50 mL with normal saline. […] The samples were incubated at 37 °C for 1 h, centrifuged at 2000 r/min for 10 min, and photographed. Light absorption of samples was measured at 540 nm on a microplate reader.
# Cell hemolysis rate (%) = (OD experimental group − negative control group)/(OD positive control group − negative control group) × 100%.
# [2] = test system: intracranial U87-mCherry-luc glioma; assay: In vivo anti-glioma study (bioluminescence); parameters: species or system nude mice; details: 20 mg/kg/day i.v. (tail vein), 11 days; days 4, 7, 11, 14; n = 5
# Protocol: The orthotopic U87-mCherry-luc glioma-bearing nude mice were randomly assigned to 6 groups (n = 5) according to the bioluminescence intensity of glioma measured on day 4. […] The bioluminescence intensity was measured on days 4, 7, 11, and 14, respectively. Nude mice were weighed daily. On day 15, the mice were sacrificed, and the glioma-bearing brains were harvested. The brain tissues were fixed with 4.0% paraformaldehyde, embedded in paraffin, and cut into slices. The TUNEL staining and CD31 immunohistochemical staining were conducted according to standard histological procedures.
# NRP-1 [3] = details: peptide 1000 nmol/L; VEGF-A165 0.5-8 nmol/L; CM5 chip; HBS-EP
# NRP-1 [4] = test system: NRP-1; parameters: method as in 2 sources, ref 21 = [21]; PMID 17983687; doi:10.1016/j.peptides.2007.09.013; 21. Starzec A. Ladam P. Vassy R. Badache S. Bouchemal N. Navaza A. du Penhoat C.H. Perret G.Y. Structure-function analysis of the antiangiogenic ATWLPPR peptide inhibiting VEGF (165) binding to neurop ||| ref 36 = [36]; PMID 11327725; doi:10.1006/bbrc.2001.4790; 36. Jia H. Lohr M. Jezequel S. Davis D. Shaikh S. Selwood D. Zachary I. Cysteine-rich and basic domain HIV-1 Tat peptides inhibit angiogenesis and induce endothelial cell apoptosis Biochem. Biophys. R; details: cited from earlier work
molecule,measurement,setting,value
"N=C(N)NCCC[C@H](NC(=O)[C@H](CCCNC(=N)N)NC(=O)[C@H](CCCNC(=N)N)NC(=O)[C@H](CCC(N)=O)NC(=O)[C@H](CCCNC(=N)N)NC(=O)[C@H](CCCNC(=N)N)NC(=O)[C@H](CCCCN)NC(=O)[C@H](CCCCN)NC(=O)[C@@H](N)CCCNC(=N)N)C(=O)O [TAT, reference compound]",induction of apoptosis,HUVECs; Hoechst and Annexin V-FITC/PI staining,no obvious effect of promoting apoptosis
same,total apoptotic rate (Q1-UR and Q1-LR),"HUVECs; mean ± SD, n = 3, control (7.17 ± 1.42)%",8.94 ± 3.52%
same,effect on VEGF-A165 and VEGFR-2 binding (RU),VEGFR-2,less inhibitory effects on VEGF-A165 and VEGFR-2 binding than TAT-AT7
same,intersegmental vascular growth,[1],no obvious effect on intersegmental vascular growth
same,hemolysis,red blood cells,did not cause obvious hemolysis
same,hemolysis rate,red blood cells,lower than 5%
same,glioma growth (bioluminescence),[2],no significant difference compared to the control group
same,inhibition of binding of VEGF-A165 and NRP-1,NRP-1 [3],"displayed inhibitory effects on the binding of VEGF-A165 and NRP-1, but it did not completely inhibit the binding"
KRRQRRRPPQGNQAHQDPLP [HIV-1 Tat-derived peptide],disturbing the cross-linking of VEGF to NRP-1,NRP-1 [4],displayed potency in disturbing the cross-linking of VEGF to NRP-1
SYGRKKRRQRRR [HIV-1 Tat-derived peptide],disturbing the cross-linking of VEGF to NRP-1,NRP-1 [4],displayed potency in disturbing the cross-linking of VEGF to NRP-1
KKRRQRRRPPQG [HIV-1 Tat-derived peptide],disturbing the cross-linking of VEGF to NRP-1,NRP-1 [4],displayed potency in disturbing the cross-linking of VEGF to NRP-1
